What was measured:
BCATm = molecular target: T1, BCATm (Homo sapiens, UniProt O15382); conditions: cited from earlier work
T1 sequence (O15382 28-392): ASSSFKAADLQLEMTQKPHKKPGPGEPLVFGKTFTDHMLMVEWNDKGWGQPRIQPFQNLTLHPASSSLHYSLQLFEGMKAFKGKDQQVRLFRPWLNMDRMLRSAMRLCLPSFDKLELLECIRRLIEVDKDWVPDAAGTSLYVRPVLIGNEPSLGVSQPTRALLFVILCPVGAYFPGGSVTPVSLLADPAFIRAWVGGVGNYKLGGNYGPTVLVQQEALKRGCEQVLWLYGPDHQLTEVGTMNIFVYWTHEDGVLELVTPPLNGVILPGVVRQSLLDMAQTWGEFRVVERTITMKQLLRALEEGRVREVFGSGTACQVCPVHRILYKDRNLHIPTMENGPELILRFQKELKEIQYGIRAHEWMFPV

[1] = tested on: freshly dissected rat retinas; test: Synthesis of leucine in freshly dissected retinas; type: cell-based; conditions: data not shown
BCATc = molecular target: T2, BCATc (Homo sapiens, UniProt P54687); conditions: cited from earlier work
T2 sequence (P54687 1-386): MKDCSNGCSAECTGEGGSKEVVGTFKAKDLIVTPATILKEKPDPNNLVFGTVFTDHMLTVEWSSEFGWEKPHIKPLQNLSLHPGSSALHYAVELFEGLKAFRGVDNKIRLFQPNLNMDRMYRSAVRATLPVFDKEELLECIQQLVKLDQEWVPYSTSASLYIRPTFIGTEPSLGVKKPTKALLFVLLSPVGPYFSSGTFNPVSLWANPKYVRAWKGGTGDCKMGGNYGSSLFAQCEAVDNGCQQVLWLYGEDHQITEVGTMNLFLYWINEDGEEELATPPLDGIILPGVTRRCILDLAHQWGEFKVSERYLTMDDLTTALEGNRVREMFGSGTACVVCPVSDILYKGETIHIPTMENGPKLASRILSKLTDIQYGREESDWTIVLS

ex vivo rat retinas = test: CO2 fixation: H14CO3 incorporation into metabolites by ex vivo retinas; type: cell-based; conditions: for TCA cycle / Asp / Gln / Glu / Total / Lact: half retinas, 37°C, 25 mM H14CO3, 0.2 mM pyruvate, BCAA 0.2 mM each; for Lact: lactate peak includes pyruvate
Experimental: Sprague Dawley rats (200-400g) were used for all experiments. Rats were housed under a 12 hour light/dark cycle, and fed and watered ad libidum. After anaesthetizing the rats with-nembutal (IP), eyes were enucleated and retinas dissected in ice-cold buffer.
Freshly isolated half-retinas were preincubated at 37°C for 3 minutes in buffer A (pH 7.4) containing 118 mM NaCl, 4.7 mM KCl, 2.5 mM CaCl, 1.2 mM KH2PO4, 1.17 mM MgSO4, 20 mM HEPES, 5 mM glucose, 0.05 mM NH4Cl and 25 mM NaH^14CO3. Pyruvate (either 0.2 or 5mM) was also included in the buffer. 1 ml buffer as well as the gas phase within 20 ml vials were equilibrated with 95% O2, 5% CO2. Incubations were initiated by addition of 10 µCi/ml H^14CO3. The vessels were then immediately closed to the atmosphere. Most incubations continued for 20 minutes, although in some preliminary studies, times were varied from 10-60 minutes. Reactions were stopped by removing the half retinas from the buffer and placing them in 2% perchloric acid. The buffer was separately acidified with perchloric acid (final concentration 2%) and unreacted ^14CO2 was allowed to diffuse out of the acidified samples.
The total amount of product (non-volatile carbon 14 metabolites) was determined by measuring the radioactivity in aliquots of the medium and tissue samples. Metabolites in the extracts were separated by Dowex-1 acetate chromatography as previously described: Williamson, J.R., and Corkey, B. (1969) "Methods in Enzymology", Vol, 13, ed. Lowenstein, J.M. (Academic Press) pp 434-513, and quantified by scintillation counting. In most instances, individual metabolite carbon 14 data is reported as the sum of the radioactivity in the medium plus tissue extracts. Complete quantification of ^14C-metabolite amounts in both the retina and in the medium can be found below in Tables I and II.
The chromatographic procedure employed in this example separates glutamine, glutamate, aspartate, and lactic acid. The citric acid cycle intermediates remain on the Dowex columns and are estimated as the difference between the total counts in the sample and the counts that are eluted. Evidence of the validity of this procedure has been reported previously. Before subjecting samples to chromatography, ^14C-pyruvic acid in the samples was converted stoichiometrically to lactate by treating the samples with excess NADH and lactate dehydrogenase. Therefore the single lactate peak reported contains all carbon 14 in both lactate and pyruvate. To determine specific activity of glutamate and glutamine in the retinal samples, the mass amount of the glutamate was measured fluorometrically using a standard enzymatic procedure: Patel, M.S. (1989) in Neuromethods: Carbohydrate and Energy Metabolism, Vol II, eds. Boulton, A.A and Baker G.D. (The Humana Press, Inc.) pp 309-340. The mass amount of glutamine was measured after chromatographic separation from glutamate followed by a luminometric determination previously described. ATP and creatine phosphate were measured fluorometrically using an enzymatic assay.
Data are reported in text and figures by determining the dpm/mg in a particular metabolite and dividing by the specific activity of medium HCO3. Therefore all data are reported as nmoles of H^14CO3/mg protein for any given metabolite.

[2] = 0, 0.2, 1, or 5 mM GBP, 20 minutes, Figure 5
[3] = compartment in (retina), 20 min, GBP 1 mM
[4] = compartment out (medium), 20 min, GBP 1 mM
[5] = sum of medium plus tissue, 20 min, GBP 1 mM

## NCC1(CC(=O)O)CCCCC1 [GBP, gabapentin]
BCATm
  inhibition of BCATm: not
[1]
  synthesis of leucine: inhibits
BCATc
  inhibition of BCATc: inhibits
Ex vivo rat retinas; [2]
  extent of inhibition of the synthesis of ^14C-glutamate plus ^14C-glutamine on increasing the concentration over 1 mM: did not significantly increase
  formation of citric acid cycle intermediates, lactate and pyruvate: no influence
Ex vivo rat retinas; 1 mM GBP plus 200 µM each of leucine, isoleucine and valine
  formation of ^14C-glutamate plus ^14C-glutamine: 89 % of control
Ex vivo rat retinas; 1 mM GBP plus 200 µM each of leucine, isoleucine and valine, p<0.01 versus GBP alone
  formation of ^14C-glutamate plus ^14C-glutamine: 2.84 ± 1.15 nmol/mg
Ex vivo rat retinas; 1 mM GBP, 20 min, 0.2 mM pyruvate, p<0.001
  formation of ^14C-glutamate plus ^14C-glutamine: 71 % of control
Ex vivo rat retinas; 1 mM GBP, 20 min, 0.2 mM pyruvate, control 3.18 ± 0.12
  formation of ^14C-glutamate plus ^14C-glutamine: 2.26 ± 0.05 nmol/mg
Ex vivo rat retinas; 1 mM GBP, control 1.93 ± .06, increase not significant
  incorporation of carbon 14 into lactate and citric acid cycle intermediates: 2.12 ± 0.13 nmoles of H^14CO3/mg protein
Ex vivo rat retinas; GBP 1 mM
  H^14CO3 incorporation into lactate and citric acid cycle intermediates: without slowing
Ex vivo rat retinas; GBP 1 mM plus 0.6 mM BCAA
  Inhibition of de novo glutamate synthesis after addition of BCAA: reversed
Ex vivo rat retinas; Rattus norvegicus, GBP 1 mM, read-out: inhibited synthesis of ^14C-glutamate plus ^14C-glutamine from H^14CO3
  inhibition at 1000 µM: 31%
Ex vivo rat retinas; compartment in (retina), estimated as total counts minus eluted counts, 20 min, GBP 1 mM
  TCA cycle: 1.514 ± 0.103 nmoles of H^14CO3/mg protein
Ex vivo rat retinas; [3]
  Asp: 0.549 ± 0.019 nmoles of H^14CO3/mg protein
  Gln: 0.389 ± 0.026 nmoles of H^14CO3/mg protein
  Glu: 1.324 ± 0.025 nmoles of H^14CO3/mg protein
  Total: 3.902 ± 0.122 nmoles of H^14CO3/mg protein
  Lact: 0.089 ± 0.006 nmoles of H^14CO3/mg protein
Ex vivo rat retinas; [4]
  Asp: 0.035 ± 0.003 nmoles of H^14CO3/mg protein
  Gln: 0.545 ± 0.024 nmoles of H^14CO3/mg protein
  Glu: 0.008 ± 0.002 nmoles of H^14CO3/mg protein
  TCA cycle: 0 nmoles of H^14CO3/mg protein
  Total: 1.066 ± 0.028 nmoles of H^14CO3/mg protein
  Lact: 0.516 ± 0.030 nmoles of H^14CO3/mg protein
Ex vivo rat retinas; [5]
  Asp: 0.584 ± 0.022 nmoles of H^14CO3/mg protein
  Gln: 0.934 ± 0.036 nmoles of H^14CO3/mg protein
  Glu: 1.332 ± 0.025 nmoles of H^14CO3/mg protein
  TCA cycle: 1.514 ± 0.103 nmoles of H^14CO3/mg protein
  Total: 4.968 ± 0.028 nmoles of H^14CO3/mg protein
  Lact: 0.605 ± 0.028 nmoles of H^14CO3/mg protein

From patent EP1157000B1 (Warner-Lambert Company LLC, priority 1999, dated 2001)
